In PubChem BioAssay (NCI):
Where “and” joins values, the source holds several entries; their conditions need not be identical. Equal values may be shown once.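 Compound exposure: 48 hours, 5 concentrations, 96-well plates. At the GI50, growth is halved. Definition used: TGI = concentration required for complete inhibition of growth.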

Key:
Experiment in all cases: inhibition of tumour cell growth, NCI panel, 48 h
[1] = test system: K-562 leukemia
[2] = test system: KM12 colon
[3] = test system: LOX IMVI melanoma
[4] = test system: M14 melanoma
[5] = test system: MALME-3M melanoma
[6] = test system: NCI/ADR-RES ovarian
[7] = test system: OVCAR-4 ovarian
[8] = test system: OVCAR-8 ovarian
[9] = test system: SK-MEL-2 melanoma
[10] = test system: SK-MEL-5 melanoma

Compound	GI50 [1]	TGI [1]	GI50 [2]	TGI [2]	GI50 [3]	TGI [3]	GI50 [4]	TGI [4]	GI50 [5]	TGI [5]	GI50 [6]	TGI [6]	GI50 [7]	TGI [7]	GI50 [8]	TGI [8]	GI50 [9]	TGI [9]	GI50 [10]	TGI [10]
Nc1ncc(C2[C@H](CNC(=O)c3cc(Br)c[nH]3)C(CNC(=O)c3cc(Br)c[nH]3)[C@@H]2c2cnc(N)[nH]2)[nH]1 (some centres undefined)	48.1 µM	> 50 µM	> 50 µM	> 50 µM	> 50 µM	> 50 µM	> 50 µM	> 50 µM	> 50 µM	> 50 µM	> 50 µM	> 50 µM	> 50 µM	> 50 µM	> 50 µM	> 50 µM	> 50 µM	> 50 µM	> 50 µM	> 50 µM
CC1OC(OC2C(O[C@H]3CC[C@@]4(C)C(=CC[C@H]5[C@@H]6C[C@@H]7O[C@]8(CC[C@@H](C)CO8)[C@@H](C)[C@@H]7[C@@]6(C)CC[C@@H]54)C3)OC(CO)C(OC3OC(CO)C(O)C3O)C2O)C(O)C(O)C1O (some centres undefined)		50 µM	0.287 µM	2.39 µM and 0.849 µM	0.21 µM	1.19 µM and 0.517 µM	0.205 µM	1.43 µM and 0.362 µM	0.324 µM	1.61 µM and 0.891 µM	1.19 µM	1.79 µM and 2.44 µM	1.08 µM	2.2 µM and 2.26 µM	0.423 µM	1.16 µM and 1.5 µM	1.46 µM	1.82 µM and 2.78 µM	0.487 µM	1.43 µM and 1.67 µM
COc1ccc(/C=C/C(C)=N/OCC(=O)Nc2ccc(Cl)cc2)cc1	2.42 µM	17.2 µM	2.24 µM	16.5 µM	2.63 µM	15.5 µM	3.01 µM	14.1 µM	4.22 µM	23.3 µM	2.9 µM	15.3 µM	1.97 µM	9.96 µM	3.52 µM	29.5 µM	3.69 µM	13.5 µM	2.36 µM	7.98 µM
O=c1nc2[nH]c3c(-c4n[nH]c(=O)[nH]c4=O)cccc3c2n[nH]1	> 100 µM	> 100 µM	> 100 µM	> 100 µM	> 100 µM	> 100 µM	> 100 µM	> 100 µM	> 100 µM	> 100 µM	> 100 µM	> 100 µM	> 100 µM	> 100 µM	> 100 µM	> 100 µM	> 100 µM	> 100 µM	> 100 µM	> 100 µM
O=C(Oc1ccc2c(c1)CN(Cc1ccccc1)CO2)c1ccccc1		49.6 µM		44.7 µM		37.1 µM		32 µM		33.9 µM		59.3 µM		32.8 µM		32.9 µM		50.5 µM		31.1 µM
COc1c(O)c2c3c(c1OC)-c1ccccc1CC3N(S(=O)(=O)c1ccc(C)cc1)CC2 (centres undefined)	0.223 µM	7.65 µM	1.76 µM	> 50 µM	2.59 µM	> 50 µM	1.81 µM	> 50 µM	7.88 µM	> 50 µM	1.49 µM	4.54 µM	3.7 µM	> 50 µM	1.92 µM	> 50 µM	1.47 µM	3.88 µM	1.77 µM	> 50 µM
Oc1ccccc1C=Nc1nc(OCc2ccccc2)nc2[nH]ncc12	30.3 µM	> 100 µM	20.4 µM	47.1 µM	18 µM	46.2 µM	21.6 µM	57.7 µM	16.6 µM	38.2 µM	28.5 µM	78.8 µM	23.5 µM	69.6 µM	44.3 µM	> 100 µM	32.2 µM	> 100 µM	15.1 µM	29.7 µM
